Measurements taken from patent US8236729B2, “Herbicidal compositions” (Bayer Cropscience AG, priority 2004, dated 2012).

Test system: Lolium multiflorum
Experiment: Outdoor trial, post-emergence herbicidal action (Example 5.2)
Type: in vivo
Details: 1080 g of AS/ha, application at the 2-5-leaf stage (post-emergence), evaluation 55 days after treatment
Protocol: The herbicidal efficacy of the active compounds or active compound mixtures was scored visually by comparing the treated pots (soil) with untreated controls. The damage and development of all above-ground plant parts was recorded. Scoring was done on a percentage scale (100% action=all plants dead or not emerged; 50% action=50% of the plants and green plant parts dead or not emerged; 0% action=no discernible action=like control plot). The score figures of in any case 4 repetitions (pots) were averaged.
When applying the combinations according to the invention, herbicidal effects are frequently observed on a harmful plant species which exceed the formal total of the effects of the herbicides present when these are applied by themselves. Alternatively, it is observed in some cases that a lower application rate is required for the herbicide combination in order to achieve the same effect on a harmful plant species in comparison with the individual products. […] When the data observed already exceed the formal total of the data in the experiments with individual applications, they likewise exceed the expected value according to Colby, which is calculated using the formula below and is likewise regarded as an indication of synergism (cf. S. R. Colby; in Weeds 15 (1967) pp. 20 to 22): E=A+B−(A·B/100) […]

Glyphosate-isopropylammonium [(B2.1.2.1)]
Herbicidal action [%] against Lolium multiflorum: 18%
